Values of other authors as cited in US7745108B2, “Method for identifying terpene synthase” (The Regents of the University of California, priority 2003, dated 2010).

Key:
monoterpene synthases = conditions: all twelve monoterpene synthases tested
taxadiene synthase = biological target: T1, taxadiene synthase (Taxus brevifolia, UniProt Q41594)
T1 sequence (Q41594 61-862 limits assumed): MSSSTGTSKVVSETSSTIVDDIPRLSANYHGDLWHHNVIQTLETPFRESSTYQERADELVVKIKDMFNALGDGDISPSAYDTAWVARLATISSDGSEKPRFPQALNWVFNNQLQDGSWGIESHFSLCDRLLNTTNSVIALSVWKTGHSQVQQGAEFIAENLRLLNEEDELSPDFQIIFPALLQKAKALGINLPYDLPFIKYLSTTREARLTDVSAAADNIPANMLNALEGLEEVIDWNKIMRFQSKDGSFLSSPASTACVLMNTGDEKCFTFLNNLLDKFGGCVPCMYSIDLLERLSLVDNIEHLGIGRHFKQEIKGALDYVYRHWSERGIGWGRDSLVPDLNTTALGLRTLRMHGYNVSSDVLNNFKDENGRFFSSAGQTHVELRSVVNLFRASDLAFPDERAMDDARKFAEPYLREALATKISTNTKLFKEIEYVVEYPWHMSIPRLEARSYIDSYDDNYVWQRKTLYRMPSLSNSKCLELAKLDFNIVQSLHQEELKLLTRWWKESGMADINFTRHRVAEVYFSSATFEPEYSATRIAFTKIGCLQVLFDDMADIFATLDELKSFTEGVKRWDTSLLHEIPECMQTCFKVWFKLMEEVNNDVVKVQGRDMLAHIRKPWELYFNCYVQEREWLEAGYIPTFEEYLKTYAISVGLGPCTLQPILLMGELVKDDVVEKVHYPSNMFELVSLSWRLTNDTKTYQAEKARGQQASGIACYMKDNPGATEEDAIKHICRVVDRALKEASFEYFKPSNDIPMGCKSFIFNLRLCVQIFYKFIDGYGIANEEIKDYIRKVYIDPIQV

cyclopropylidene geranyl diphosphate [CP-GPP]
sensitivity of monoterpene synthases to the inhibitor (monoterpene synthases): sensitive

cyclopropylidene geranylgeranyl diphosphate [CP-GGPP]
covalent modification and inhibition of taxadiene synthase (taxadiene synthase): unsuccessful in covalently modifying and inhibiting
